Source: patent US20230167073A1 (Teijin Pharma Limited, priority 2020, published 2023)

What follows are compounds tested against T1, Human TRPC6 (Homo sapiens, UniProt Q9Y210) (assay: Evaluation of TRPC6 channel inhibitory activity (1), FLIPR Calcium 5 Assay Kit, OAG stimulation (Compound Nos. 1-1293)). Settings: Human TRPC6 stably-expressing cells, OAG 30 μM, FLIPR Calcium 5 Assay Kit; read-out: Inhibitory activity (pIC50 class) (converted).
T1 construct: expressed in transfected cells
T1 sequence (Q9Y210 1-931): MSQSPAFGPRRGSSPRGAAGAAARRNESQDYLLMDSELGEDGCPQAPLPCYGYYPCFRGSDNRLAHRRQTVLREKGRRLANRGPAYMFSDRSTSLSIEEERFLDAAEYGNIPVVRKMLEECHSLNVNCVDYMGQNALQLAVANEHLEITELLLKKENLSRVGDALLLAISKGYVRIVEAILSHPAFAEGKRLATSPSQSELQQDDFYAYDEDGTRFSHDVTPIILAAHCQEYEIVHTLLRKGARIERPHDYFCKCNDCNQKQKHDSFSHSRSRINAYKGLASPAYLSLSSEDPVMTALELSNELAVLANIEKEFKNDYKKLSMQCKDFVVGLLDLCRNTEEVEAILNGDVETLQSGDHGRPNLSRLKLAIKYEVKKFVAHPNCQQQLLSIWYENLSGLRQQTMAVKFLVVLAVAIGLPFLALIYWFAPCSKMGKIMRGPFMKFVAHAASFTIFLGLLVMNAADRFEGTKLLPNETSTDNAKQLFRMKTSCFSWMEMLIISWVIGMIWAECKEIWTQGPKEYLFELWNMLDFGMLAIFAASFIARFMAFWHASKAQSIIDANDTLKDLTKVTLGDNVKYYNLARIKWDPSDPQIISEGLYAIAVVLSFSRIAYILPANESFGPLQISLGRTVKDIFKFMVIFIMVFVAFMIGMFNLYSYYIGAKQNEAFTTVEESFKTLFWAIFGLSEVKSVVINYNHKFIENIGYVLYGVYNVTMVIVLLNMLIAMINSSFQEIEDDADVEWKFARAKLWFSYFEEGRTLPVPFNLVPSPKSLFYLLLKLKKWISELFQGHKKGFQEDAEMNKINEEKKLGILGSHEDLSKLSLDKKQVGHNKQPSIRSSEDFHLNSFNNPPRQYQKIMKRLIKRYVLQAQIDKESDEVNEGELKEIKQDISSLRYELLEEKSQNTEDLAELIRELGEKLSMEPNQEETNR
Format: cell-based
Outline: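 Readout is pIC50 from four-parameter logistic fitting of inhibition of the OAG-evoked (30 μM final) fluorescence calcium signal. Human TRPC6 stable cells are dye-loaded with probenecid, and compound is applied 20 min ahead of agonist.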

Row | SMILES | IC50 [µM]
1 | Cn1nc(C(C)(C)C)cc1C(O)c1cc(C#N)ccc1-c1ncc(CN)cn1 (stereo not drawn) [compound 1234, 4-[5-(aminomethyl)pyrimidin-2-yl]-3-[(5-tert-butyl-2-methylpyrazol-3-yl)-hydroxymethyl]benzonitrile] | < 0.01
2 | Cc1nc(-c2ccccc2F)cn1Cc1cc(C#N)ccc1-c1ccc(CCN)cn1 [compound 1152, 4-[5-(2-aminoethyl)pyridin-2-yl]-3-[[4-(2-fluorophenyl)-2-methylimidazol-1-yl]methyl]benzonitrile] | < 0.01
3 | CCN(CC(F)F)c1cc(C(=O)c2cc(C#N)ccc2-c2ncc(CN)cn2)n(C)n1 [compound 1074, 4-[5-(aminomethyl)pyrimidin-2-yl]-3-[5-[2,2-difluoroethyl(ethyl)amino]-2-methylpyrazole-3-carbonyl]benzonitrile] | < 0.01
4 | Cc1nc(Oc2cc(C#N)ccc2-c2ccc(CCN)nc2)cc(-c2cccnc2)n1 [Compound 188, 4-[6-(2-aminoethyl)pyridin-3-yl]-3-(2-methyl-6-pyridin-3-ylpyrimidin-4-yl)oxybenzonitrile] | > 1
5 | Cn1nc(C2CC2)cc1Oc1cc(C#N)ccc1-c1ccc(C(N)C#N)cn1 (stereo not drawn) [compound 422, 4-[5-[amino(cyano)methyl]pyridin-2-yl]-3-(5-cyclopropyl-2-methylpyrazol-3-yl)oxybenzonitrile] | 0.01 to 1
6 | Cc1nc(Oc2cc(C#N)ccc2-c2ccc(CC3(N)COC3)cn2)cc(N2CCC[C@H]2C#N)n1 [compound 673, (2S)-1-[6-[2-[5-[(3-aminooxetan-3-yl)methyl]pyridin-2-yl]-5-cyanophenoxy]-2-methylpyrimidin-4-yl]pyrrolidine-2-carbonitrile] | > 1
7 | Cn1nc(C2CC2)cc1Oc1cc(C#N)ccc1-c1cccc2c(N)noc12 [compound 594, 4-(3-amino-1,2-benzoxazol-7-yl)-3-(5-cyclopropyl-2-methylpyrazol-3-yl)oxybenzonitrile] | > 1
8 | CC(C)c1nc(Oc2cc(C#N)ccc2-c2ncc(CN)cn2)n(C)n1 [compound 814, 4-[5-(aminomethyl)pyrimidin-2-yl]-3-[(2-methyl-5-propan-2-yl-1,2,4-triazol-3-yl)oxy]benzonitrile] | > 1
9 | Cc1cc(Oc2cc(C#N)c(C)cc2-c2ncc(CCN)cn2)cc(N2CCOCC2)n1 [compound 900, 4-[5-(2-aminoethyl)pyrimidin-2-yl]-2-methyl-5-(2-methyl-6-morpholin-4-ylpyridin-4-yl)oxybenzonitrile] | < 0.01
10 | Cn1nc(N2CCCC2)cc1Oc1cc(F)ccc1-c1ncc(CN)cn1 [compound 995, [2-[4-fluoro-2-(2-methyl-5-pyrrolidin-1-ylpyrazol-3-yl)oxyphenyl]pyrimidin-5-yl]methanamine] | 0.01 to 1
11 | CC(C)Nc1cc(Oc2cc(C#N)ccc2-c2ncc(CN)cn2)cnn1 [compound 764, 4-[5-(aminomethyl)pyrimidin-2-yl]-3-[6-(propan-2-ylamino)pyridazin-4-yl]oxybenzonitrile] | 0.01 to 1
12 | Cc1nc(Oc2cc(C#N)ccc2-c2ccc(CC3(N)COC3)cn2)cc(N2CCCC2)n1 [compound 616, 4-[5-[(3-aminooxetan-3-yl)methyl]pyridin-2-yl]-3-(2-methyl-6-pyrrolidin-1-ylpyrimidin-4-yl)oxybenzonitrile] | 0.01 to 1
13 | Cn1nc(C2CC2)cc1Oc1cc(C#N)ccc1-c1ncc(C2(N)CC2)cn1 [compound 463, 4-[5-(1-aminocyclopropyl)pyrimidin-2-yl]-3-(5-cyclopropyl-2-methylpyrazol-3-yl)oxybenzonitrile] | > 1
14 | CC(C)c1cc(Oc2cc(F)ccc2-c2ncc(CCN)cn2)n(C)n1 [compound 1013, 2-[2-[4-fluoro-2-(2-methyl-5-propan-2-ylpyrazol-3-yl)oxyphenyl]pyrimidin-5-yl]ethanamine] | < 0.01
15 | Cc1nc(Oc2cc(C#N)ccc2-n2cc([C@@H](O)CN)cn2)cc(N2CCCC2)n1 [Compound 232, 4-[4-[(1R)-2-amino-1-hydroxyethyl]pyrazol-1-yl]-3-(2-methyl-6-pyrrolidin-1-ylpyrimidin-4-yl)oxybenzonitrile] | < 0.01
16 | Cc1cc(Oc2cc(C#N)ccc2-c2ncc(CCN)cn2)cc(N2CCNC(=O)C2)n1 [compound 455, 4-[5-(2-aminoethyl)pyrimidin-2-yl]-3-[2-methyl-6-(3-oxopiperazin-1-yl)pyridin-4-yl]oxybenzonitrile] | > 1
17 | Cc1cc(C(=O)c2cc(C#N)ccc2-c2ncc(CCN)cn2)cc(N2CCOCC2)n1 [Compound No. 1042, 4-[5-(2-Aminoethyl)pyrimidin-2-yl]-3-(2-methyl-6-morpholin-4-ylpyridine-4-carbonyl)benzonitrile] | < 0.01
18 | Cn1nc2c(c1Oc1cc(C#N)ccc1-c1cc(CCN)ccn1)CCC2 [compound 683, 4-[4-(2-aminoethyl)pyridin-2-yl]-3-[(2-methyl-5,6-dihydro-4H-cyclopenta[c]pyrazol-3-yl)oxy]benzonitrile] | > 1
19 | COCc1cn(Cc2cc(C#N)ccc2-c2ccc(CCN)cc2)cn1 [compound 1118, 4-[4-(2-aminoethyl)phenyl]-3-[[4-(methoxymethyl)imidazol-1-yl]methyl]benzonitrile] | > 1
20 | Cc1cc(Oc2cc(C#N)ccc2-c2ncc([C@H](O)CN)cn2)cc(N2CCOC(C)(C)C2)n1 [compound 532, 4-[5-[(1S)-2-amino-1-hydroxyethyl]pyrimidin-2-yl]-3-[2-(2,2-dimethylmorpholin-4-yl)-6-methylpyridin-4-yl]oxybenzonitrile] | < 0.01
21 | Cn1nc(C2CC2)cc1Oc1cc(C#N)ccc1-c1ccc(C(=O)N2CCNCC2)cn1 [compound 780, 3-(5-cyclopropyl-2-methylpyrazol-3-yl)oxy-4-[5-(piperazine-1-carbonyl)pyridin-2-yl]benzonitrile] | > 1
22 | COC(c1cc(-c2ccccc2)no1)c1cc(C#N)ccc1-c1ccc(CCN)cc1 (stereo not drawn) [compound 1231, 4-[4-(2-aminoethyl)phenyl]-3-[methoxy-(3-phenyl-1,2-oxazol-5-yl)methyl]benzonitrile] | 0.01 to 1
23 | Cn1nc(C2CCC2)cc1Oc1cc(C#N)ccc1-c1ncc(C(O)CNCC#N)cn1 (stereo not drawn) [Compound 281, 4-[5-[2-(cyanomethylamino)-1-hydroxyethyl]pyrimidin-2-yl]-3-(5-cyclobutyl-2-methylpyrazol-3-yl)oxybenzonitrile] | > 1
24 | N#Cc1ccc(-c2ccc(CCN)cn2)c(C(=O)c2nnc(N3CCOCC3)o2)c1 [compound 1091, 4-[5-(2-aminoethyl)pyridin-2-yl]-3-(5-morpholin-4-yl-1,3,4-oxadiazole-2-carbonyl)benzonitrile] | 0.01 to 1
25 | Cc1cc(Oc2cc(C#N)ccc2-c2ccc(CN)cn2)cc(NC2CCOCC2)n1 [compound 647, 4-[5-(aminomethyl)pyridin-2-yl]-3-[2-methyl-6-(oxan-4-ylamino)pyridin-4-yl]oxybenzonitrile] | > 1
26 | Cn1nc(C2CC2)cc1Oc1cc(C#N)ccc1-c1cccn2c(CCN)nnc12 [compound 570, 4-[3-(2-aminoethyl)-[1,2,4]triazolo[4,3-a]pyridin-8-yl]-3-(5-cyclopropyl-2-methylpyrazol-3-yl)oxybenzonitrile] | 0.01 to 1
27 | Cc1ccc(-c2cn(Cc3cc(C#N)ccc3-c3ccc(CCN)cn3)c(C)n2)cc1 [compound 1153, 4-[5-(2-aminoethyl)pyridin-2-yl]-3-[[2-methyl-4-(4-methylphenyl)imidazol-1-yl]methyl]benzonitrile] | < 0.01
